{
  "source": "patent US10980788B2",
  "about": "“Therapy for treating malignancies” (Agios Pharmaceuticals, Inc., priority 2018, dated 2021)",
  "key": {"[1]": {"assay": "Safety and tolerability of a single oral dose of 500 mg COMPOUND 1 in healthy subjects", "assay_type": "in vivo, human", "conditions": "single oral dose of 500 mg, fed and fasted conditions", "procedure": "Safety and tolerability were also evaluated for a single oral dose of 500 mg of COMPOUND 1.\nIncidence of adverse events and serious adverse events was assessed."}, "[2]": {"assay": "Food effect on pharmacokinetics of COMPOUND 1 in healthy subjects (phase 1, open-label, randomized, two-period crossover)", "assay_type": "in vivo, human", "conditions": "for Tmax / half-life / AUC(0-inf) / AUC(0-t) / Cmax: plasma, single oral dose 500 mg", "procedure": "The food effect on COMPOUND 1 PK following administration of a single oral dose of 500 mg of COMPOUND 1 in healthy subjects aged 18-55 years was evaluated in a was a phase 1, open-label, randomized, two-period crossover study.\nThe study was conducted according to the United States Food and Drug Administration (FDA) 2002 Guidance for Industry “Food-Effect Bioavailability and Fed Bioequivalence Studies”.\nTreatments A and B, each comprising a single oral dose of 500 mg of COMPOUND 1, were administered as shown in Table 1. • A (fasted): two 250 mg tablets administered after an overnight fast (approximately 10 hr). • B (fed): two 250 mg tablets administered after a standardized high-fat breakfast, consumed within 30 minutes prior to COMPOUND 1 dosing.\nThe standardized FDA high-fat content meal contains the equivalent of ˜150 protein calories, ˜250 carbohydrate calories, and ˜500-600 fat calories, and comprises two eggs fried in butter, two strips of bacon, two slices of toast with butter, four ounces of hash brown potatoes (fried with butter), and eight ounces (240 mL) of whole milk.\nOf the 30 subjects enrolled, 15 were randomized to sequence AB and 15 were randomized to sequence BA.\nBlood samples for the analysis of COMPOUND 1 concentrations were collected predose and 0.5, 1, 2, 3, 4, 6, 9, 12, 24, 48, 72, 120, 168, 240, 336, and 504 hr postdose. Plasma concentrations of COMPOUND 1 were determined using a validated liquid chromatography with tandem mass spectrometry method. PK parameters were calculated using WinNonlin (Pharsight Corporation, Version 6.2.1). Linear mixed model analysis was performed on natural logarithm (In) transformed maximum observed concentration (Cmax), area under the concentration-time curve from Hour 0 to the last measurable concentration (AUC0-t), and area under the concentration-time curve extrapolated to infinity (AUC0-∞). The analyses were performed using the SAS MIXED procedure. […] Inter-subject variability was determined using the geometric coefficient of variation percent (CV %)."}, "[3]": {"conditions": "fed condition (test) versus fasted condition (reference), 500 mg, n = 27"}, "[4]": {"conditions": "high-fat meal compared with fasted condition, 500 mg single oral dose"}, "[5]": {"conditions": "human, po, 500 mg, fasted, n = 29, geometric mean"}, "[6]": {"conditions": "human, po, 500 mg, fed (high-fat meal), n = 27, geometric mean"}},
  "note": "Where two headings read alike, the source gives them in different places.",
  "data": [
    {"molecule": "N#Cc1ccnc(N2C(=O)CC[C@H]2C(=O)N(c2cncc(F)c2)[C@H](C(=O)NC2CC(F)(F)C2)c2ccccc2Cl)c1", "note": "[COMPOUND 1, (S)—N—((S)-1-(2-chlorophenyl)-2-((3,3-difluorocyclobutyl)amino)-2-oxoethyl)-1-(4-cyanopyridin-2-yl)-N-(5-fluoropyridin-3-yl)-5-oxopyrrolidine-2-carboxamide]", "values": [
      {"measurement": "Safety and tolerability", "setting": "[1]", "value": "safe and well tolerated"},
      {"measurement": "Geometric mean ratio (%) AUC0-t", "setting": "[2]; [3]", "value": 125.6, "unit": "%"},
      {"measurement": "Geometric mean ratio (%) AUC0-∞", "setting": "[2]; [3]", "value": 124.3, "unit": "%"},
      {"measurement": "Geometric mean ratio (%) Cmax", "setting": "[2]; [3]", "value": 197.8, "unit": "%"},
      {"measurement": "Increase in extent of exposure as assessed by AUC0-t", "setting": "[2]; [4]", "value": 25.6, "unit": "%"},
      {"measurement": "Increase in extent of exposure as assessed by AUC0-∞", "setting": "[2]; [4]", "value": 24.3, "unit": "%"},
      {"measurement": "Increase in mean Cmax", "setting": "[2]; [4]", "value": "~2", "unit": "fold"},
      {"measurement": "Increase in AUC", "setting": "[2]; high-fat meal prior to dosing compared with fasted, 500 mg single oral dose", "value": "~25", "unit": "%"},
      {"measurement": "Tmax", "setting": "[2]; human, po, 500 mg, fasted, n = 29, median, read-out: Tmax", "value": 3, "unit": "h"},
      {"measurement": "Tmax", "setting": "[2]; human, po, 500 mg, fed (high-fat meal), n = 27, median, read-out: Tmax", "value": 3, "unit": "h"},
      {"measurement": "half-life", "setting": "[2]; human, po, 500 mg, fasted, n = 29, arithmetic mean", "value": 55.4, "unit": "h"},
      {"measurement": "AUC(0-inf)", "setting": "[2]; [5]", "value": 143, "unit": "µg·h/mL"},
      {"measurement": "AUC(0-t)", "setting": "[2]; [5]", "value": 136, "unit": "µg·h/mL"},
      {"measurement": "Cmax", "setting": "[2]; [5]", "value": 2270, "unit": "ng/mL"},
      {"measurement": "half-life", "setting": "[2]; human, po, 500 mg, fed (high-fat meal), n = 27, arithmetic mean", "value": 53.2, "unit": "h"},
      {"measurement": "AUC(0-inf)", "setting": "[2]; [6]", "value": 174, "unit": "µg·h/mL"},
      {"measurement": "AUC(0-t)", "setting": "[2]; [6]", "value": 166, "unit": "µg·h/mL"},
      {"measurement": "Cmax", "setting": "[2]; [6]", "value": 4490, "unit": "ng/mL"},
      {"measurement": "Tmax", "setting": "[2]; fasted, n = 29, median", "value": 3.03, "unit": "h"}
    ]}
  ]
}
